Assays:
[1] = Aggregation behavior of compound in RPMI 1640 medium with 0.05% cremophor EL at 3 uM by UV-vis absorption spectra analysis; assay type: physicochemical
[2] = Aggregation behavior of compound in DMF at 1 to 6 uM by UV-vis absorption spectra analysis; assay type: physicochemical
[3] = Photostability in DMF assessed as release of singlet oxygen at 4 uM preincubated with DPBF in dark followed by irradiation with red light by DPBF decay assay; assay type: functional
[4] = Aggregation behavior of compound in water at 3 uM by UV-vis absorption spectra analysis; assay type: physicochemical; conditions: buffer
HT-29 [5] = assay: Photocytotoxicity against human HT-29 cells with high expression of alphaVbeta3 integrin assessed as decrease in cell viability preincubated for 2 hrs followed by red light irradiation and measured after overnight incubation by MTT assay; assay type: functional, cell-based; conditions: HT-29, light or radiation study
HT-29 [6] = assay: Photocytotoxicity against human HT-29 cells with high expression of alphaVbeta3 integrin assessed as decrease in cell viability preincubated for 24 hrs followed by red light irradiation and measured after overnight incubation by MTT assay; assay type: functional, cell-based; conditions: HT-29, light or radiation study
MCF7 [7] = assay: Photocytotoxicity against human MCF7 cells with low expression of alphaVbeta3 integrin assessed as decrease in cell viability preincubated for 2 hrs followed by red light irradiation and measured after overnight incubation by MTT assay; assay type: functional, cell-based; conditions: MCF7, light or radiation study
MCF7 [8] = assay: Photocytotoxicity against human MCF7 cells with low expression of alphaVbeta3 integrin assessed as decrease in cell viability preincubated for 24 hrs followed by red light irradiation and measured after overnight incubation by MTT assay; assay type: functional, cell-based; conditions: MCF7, light or radiation study
[9] = Selectivity ratio of IC50 for human MCF7 cells with low expression of alphaVbeta3 integrin to IC50 for human HT-29 cells with high expression of alphaVbeta3 integrin preincubated for 2 hrs followed by red light irradiation and measured after overnight incubation by MTT assay; assay type: functional
[10] = Selectivity ratio of IC50 for human MCF7 cells with low expression of alphaVbeta3 integrin to IC50 for human HT-29 cells with high expression of alphaVbeta3 integrin preincubated for 24 hrs followed by red light irradiation and measured after overnight incubation by MTT assay; assay type: functional
[11] = Dark toxicity against human HT-29 cells with high expression of alphaVbeta3 integrin assessed as decrease in cell viability incubated for 2 to 24 hrs by MTT assay; assay type: cell-based
[12] = Dark toxicity against human MCF7 cells with low expression of alphaVbeta3 integrin assessed as decrease in cell viability incubated for 2 to 24 hrs by MTT assay; assay type: cell-based
HaCaT [13] = assay: Photocytotoxicity against human HaCaT cells assessed as decrease in cell viability preincubated for 2 hrs followed by red light irradiation and measured after overnight incubation by MTT assay; assay type: cell-based; conditions: light or radiation study
HaCaT [14] = assay: Photocytotoxicity against human HaCaT cells assessed as decrease in cell viability preincubated for 24 hrs followed by red light irradiation and measured after overnight incubation by MTT assay; assay type: cell-based; conditions: light or radiation study
[15] = Selectivity index, ratio of IC50 for photocytotoxicity against human HaCaT cells to IC50 for photocytotoxicity against human HT-29 cells with high expression of alphaVbeta3 integrin; assay type: toxicity, cell-based; conditions: read-out: Ratio IC50
[16] = Drug uptake in human MCF7 cells at 1 uM after 24 hrs by confocal laser scanning microscopic method; assay type: ADME, cell-based; conditions: mcf7, 24 h
HT-29 [17] = assay: Induction of reactive oxygen species formation in human HT-29 cells with high expression of alphaVbeta3 integrin preincubated for 2 hrs followed by DCF-DA dye addition and measured after 30 mins in absence of light by fluorescence assay; assay type: cell-based; conditions: ht-29, 0.5 h
MCF7 [18] = assay: Induction of reactive oxygen species formation in human MCF7 cells with low expression of alphaVbeta3 integrin preincubated for 2 hrs followed by DCF-DA dye addition and measured after 30 mins in absence of light by fluorescence assay; assay type: cell-based; conditions: mcf7, 0.5 h
HT-29 [19] = assay: Induction of reactive oxygen species formation in human HT-29 cells with high expression of alphaVbeta3 integrin preincubated for 2 hrs followed by incubation with DCF-DA dye for 30 mins and measured after irradiation by fluorescence assay; assay type: functional, cell-based
MCF7 [20] = assay: Induction of reactive oxygen species formation in human MCF7 cells with […] expression of alphaVbeta3 integrin preincubated for 2 hrs followed by incubation with DCF-DA dye for 30 mins and measured after irradiation by fluorescence assay; assay type: functional, cell-based
[21] = Drug uptake in lysosome of human HT-29 cells at 1 uM incubated for 0.5 hrs by Lyso Tracker red dye-based confocal laser scanning microscopic method; assay type: ADME, subcellular; conditions: ht-29, 0.5 h
Mus musculus [22] = assay: Drug uptake in KM mouse xenografted with […] cells at 0.5 nmol/g, iv measured up to 24 hrs by fluorescence imaging method; assay type: ADME, organism-based; conditions: in vivo
[23] = Drug uptake in tumor of KM mouse xenografted with […] cells expressing integrin at 0.5 nmol/g, iv measured after 1 to 24 hrs by fluorescence imaging method; assay type: ADME, organism-based, Neoplasm; conditions: in vivo
Mus musculus [24] = assay: Drug uptake in KM mouse xenografted with […] cells at 0.5 nmol/g, iv measured after 24 hrs by fluorescence imaging method; assay type: ADME, organism-based; conditions: in vivo
[25] = Ratio of drug level in tumor of KM mouse xenografted with […] cells expressing integrin to liver of KM mouse xenografted with […] cells at 0.5 nmol/g, iv measured after 24 hrs; assay type: ADME, organism-based, Tumor/tissue; conditions: in vivo
[26] = Ratio of drug level in tumor of KM mouse xenografted with […] cells expressing integrin to kidney of KM mouse xenografted with […] cells at 0.5 nmol/g, iv measured after 24 hrs; assay type: ADME, organism-based, Tumor/tissue; conditions: in vivo
H22 [27] = assay: Antitumor activity against […] cells expressing integrin xenografted in KM mouse assessed as tumor growth inhibition at 0.5 nmol/g, iv administered 12 hrs followed by irradiation with laser for 6 mins and measured after 14 days; assay type: functional
H22 [28] = assay: Dark toxicity against […] cells expressing integrin xenografted in KM mouse at 0.5 nmol/g, iv administered 12 hrs measured every other day for 14 days; assay type: organism-based; conditions: in vivo, 336 h

Question: For `N=C(N)NCCC[C@@H]1NC(=O)[C@H](Cc2cn(CCOCCOCCO[Si]3(OCCOCCOCCn4cc(C[C@@H]5NC(=O)[C@@H](Cc6ccccc6)NC(=O)[C@H](CC(=O)O)NC(=O)CNC(=O)[C@H](CCCNC(=N)N)NC5=O)nn4)n4c5c6ccccc6c4/N=C4N=C(/N=c6/c7ccccc7/c(n63)=N/C3=NC(=N\5)/c5ccccc53)c3ccccc3\4)nn2)NC(=O)[C@@H](Cc2ccccc2)NC(=O)[C@H](CC(=O)O)NC(=O)CNC1=O` (stereo partly drawn), which Activity [1] is on record?
Answer: The Activity was “Not Active”.

Question: And the Activity [2]?
Answer: Its Activity is “Not Active”.

Question: And the Stability [3]?
Answer: The Stability was “Unstable”.

Question: What about the Activity [4] of the same molecule?
Answer: The Activity was “Not Active”.

Question: What about the IC50 (HT-29 [5]) of the same molecule?
Answer: Its IC50 is 30 nM.

Question: And the IC50 (HT-29 [6])?
Answer: Its IC50 is 23 nM.

Question: What about the IC50 (MCF7 [7]) of the same molecule?
Answer: The IC50 was 100 nM.

Question: And the IC50 (MCF7 [8])?
Answer: Its IC50 is 66 nM.

Question: And the “Ratio IC50” value [9]?
Answer: Its value is 3.33.

Question: And the “Ratio IC50” value [10]?
Answer: The value was 2.87.

Question: What about the Activity [11] of the same molecule?
Answer: Its Activity is “Non-Toxic”.

Question: What about the Activity [12] of the same molecule?
Answer: The Activity was “Non-Toxic”.

Question: And the IC50 (HaCaT [13])?
Answer: The IC50 was 60 nM.

Question: What about the IC50 (HaCaT [14]) of the same molecule?
Answer: Its IC50 is 56 nM.

Question: What about the selectivity ratio [15] of the same molecule?
Answer: Its selectivity ratio is 2.

Question: What about the Drug uptake [16] of the same molecule?
Answer: Its Drug uptake is “Not Active”.

Question: What about the Activity (HT-29 [17]) of the same molecule?
Answer: Its Activity is “Non-Toxic”.

Question: And the Activity (MCF7 [18])?
Answer: Its Activity is “Non-Toxic”.

Question: And the Activity (HT-29 [19])?
Answer: Its Activity is “Dose-dependent effect”.

Question: And the Activity (MCF7 [20])?
Answer: Its Activity is “Dose-dependent effect”.

Question: What about the Drug uptake [21] of the same molecule?
Answer: Its Drug uptake is “Active”.

Question: And the Drug uptake (Mus musculus [22])?
Answer: The Drug uptake was “Active”.

Question: What about the Drug uptake [23] of the same molecule?
Answer: The Drug uptake was “Active”.

Question: What about the Drug uptake (Mus musculus [24]) of the same molecule?
Answer: Its Drug uptake is “Not Active”.

Question: What about the Ratio [25] of the same molecule?
Answer: The Ratio was 2.1.

Question: And the Ratio [26]?
Answer: The Ratio was 2.

Question: And the TGI (H22 [27])?
Answer: Its TGI is 75%.

Question: And the Activity (H22 [28])?
Answer: The Activity was “Non-Toxic”.
